The values below come from patent publication US9107814B2, “Micelle composition of polymer and passenger drug” (Wisconsin Alumni Research Foundation, priority 2005, dated 2015).

A short description of series [1]: loading of rapamycin and geldanamycin into PEG-DSPE and PEG-PCL micelles. The format is physicochemical. The settings on record: micelle solution against water solubility. An excerpt: The final solvent to water ratio is between about 0.1 and about 5, preferably between about 0.5 and about 4, and more preferably about 2. The micelle solution should be delivered at a rate of between about 2 s/drop and about 60 s/drop, preferably between about 5 s/drop and about 30 s/drop, and more preferably between about 10 s/drop and about 20 s/drop.

Series [2] has as its system MDA-MB-468 breast cancer cell line. Nature of the series: MTS cytotoxicity assay. In kind it is cell-based. The settings on record: Homo sapiens, 96 h; MDA-MB-468, 4 days, drugs in 1% DMSO. The method, then:
Cytotoxicities of the drugs to the MDA-MB-468 breast cancer cell line (ATCC) were determined. Cells are plated at a density of 3000 cells/well into 96 well plates (100 μl/well DMEM medium). After 24 hours, drugs were added dissolved in 1% DMSO. Cells were incubated with drugs for 4 days and toxicity determined using the MTS cytotoxicity assay according to manufacturer's directions (Promega, Madison, Wis.).

The conditions of series [3]: preclinical trials; cited from earlier work.
The conditions of series [4]: cited from earlier work.
The conditions of series [5]: cited from earlier work. This is another data set of the same source.
The conditions of series [6]: different species; cited from earlier work.

Each structure is given as a SMILES string. In brackets after ≈: the same amount, converted by molar mass.

Procedure for physchem: The octanol-water partition coefficient of geldanamycin was determined by microemulsion electrokinetic chromatography.
Running buffer was prepared by titration of 25-mM sodium phosphate monobasic with 50-mM sodium tetraborate to pH 7.00, and 1.44 g of sodium dodecyl sulfate, 6.49 g of 1-butanol, and 0.82 g of heptane were made up to 100 ml with phosphate-borate buffer. The running buffer was ultrasonicated for 30 min in a closed 250-ml flask in ice water (G112SP1 Special Ultrasonic Cleaner, Laboratory Supplies Company Inc., Hicksville, N.Y.). […] Compounds and standards (n=3) were dissolved in the running buffer (0.05 mg/ml) with 0.5 μL/ml of nitromethane and 0.5 μL/ml of 1-phenyldodecane by ultrasonication (10 min) in a closed tube and centrifuged (16000×g, 3 min) to degas. A BioFocus 3000 capillary electrophoresis system (Bio-Rad, Hercules, Calif.) equipped with a 50-μm ID×37-cm uncoated fused-silica column (Polymicron Technologies LLC, Phoenix, Ariz.) was used for MEEKC experiments. The column was prewashed with 1-M NaOH for 5 min and before runs with 0.1-M NaOH for 1 min, ddH2O for 1 min, and running buffer for 1 min at 100 psi (690 kPa). Running conditions were 10 kV (ca. 30-35 μA, 30 min/run) at 20° C. with 1-psi·s injections (6.9 kPa·s) and detection at 210 and 232 nm. Log Po/w and retention factors, k′, were calculated using the equations:
[formula] [formula] where tr, t0, and tme are retention times of the prodrug, nitromethane, and 1-phenyldodecane, respectively. Fitting parameters a and b were determined by linear regression of known standards: pyridine, phenol, benzoic acid, anisole, benzene, toluene, dodecanoic acid, benzopyrene, and pyrene (R^2=0.996, Excel® 2003, Microsoft Corp.).

Compound `COC1=C2C[C@@H](C)C[C@H](OC)[C@H](O)[C@@H](C)/C=C(\C)[C@H](OC(N)=O)[C@@H](OC)/C=C\C=C(/C)C(=O)NC(=CC1=O)C2=O` [Geldanamycin] returned an increase in solubility in series [1] of 300 fold. In series [2], this compound registered an IC50 of 5 nM. Further, in series [3], the “dose limiting severe hepatotoxicity” value is 4 mg/kg. Moreover, in series [4], the water solubility is about 1.5 µg/mL (≈ 2.68 µM). Also, the chromatographic logP in “physchem” is about 2.77. The MTD dog in series [5] was under 100 mg/m^2.

For the compound `CO[C@H]1C[C@@H]2CC[C@@H](C)[C@@](O)(O2)C(=O)C(=O)N2CCCC[C@H]2C(=O)O[C@H]([C@H](C)C[C@@H]2CC[C@@H](O)[C@H](OC)C2)CC(=O)[C@H](C)/C=C(\C)[C@@H](O)[C@@H](OC)C(=O)[C@H](C)C[C@H](C)/C=C/C=C/C=C/1C` [Rapamycin], the increase in solubility in series [1] is 1900 fold. Also, the half-life entry in series [6] was “more than 5 hours”. This compound returned a chromatographic logP in “physchem” of 3.77.
